{"source": "paper PMC6952414", "about": "(Nature Communications, 2020)", "key": {"[1]": {"tested_on": "IAV strain PR8", "parameters": "species or system BALB/c mice", "conditions": "mouse, in vivo"}, "[2]": {"tested_on": "IAV strain PR8", "assay": "microbe, parasite or virus in culture", "conditions": "Influenza A virus, PR8, MDCK, read-out: EC50 (μM), IAV cytopathicity"}, "[3]": {"tested_on": "IAV strain PR8", "type": "cell-based, IAV H1N1 strain A/Puerto Rico/8/1934 (PR8)"}, "[4]": {"tested_on": "IAV strain PR8", "type": "cell-based, IAV H1N1 strain A/Puerto Rico/8/1934 (PR8)", "remark": "listed apart in the source"}, "[5]": {"tested_on": "IAV strain PR8", "type": "cell-based, IAV H1N1 strain A/Puerto Rico/8/1934 (PR8)", "remark": "listed apart in the source"}, "[6]": {"tested_on": "IAV strain PR8", "type": "cell-based, IAV H1N1 strain A/Puerto Rico/8/1934 (PR8)", "remark": "listed apart in the source"}, "[7]": {"tested_on": "virus NP mRNA", "type": "cell-based, IAV H1N1 strain A/Puerto Rico/8/1934 (PR8)"}, "[8]": {"tested_on": "PR8-HA0", "type": "binding, IAV H1N1 strain A/Puerto Rico/8/1934 (PR8)"}, "[9]": {"tested_on": "PR8-HA1/HA2", "type": "binding, IAV H1N1 strain A/Puerto Rico/8/1934 (PR8)"}, "[10]": {"tested_on": "MDCK cells", "conditions": "5 mM for 16 h"}, "[11]": {"tested_on": "IAV strain PR8"}, "[12]": {"tested_on": "recombinant HA / α2-6sialyllactose-PAA", "type": "binding, IAV H1N1 strain A/Puerto Rico/8/1934 (PR8)"}, "[13]": {"molecular_target": "immobilized recombinant HA (Influenza A virus, UniProt P03452)", "sequence (P03452 18-565 limits assumed)": "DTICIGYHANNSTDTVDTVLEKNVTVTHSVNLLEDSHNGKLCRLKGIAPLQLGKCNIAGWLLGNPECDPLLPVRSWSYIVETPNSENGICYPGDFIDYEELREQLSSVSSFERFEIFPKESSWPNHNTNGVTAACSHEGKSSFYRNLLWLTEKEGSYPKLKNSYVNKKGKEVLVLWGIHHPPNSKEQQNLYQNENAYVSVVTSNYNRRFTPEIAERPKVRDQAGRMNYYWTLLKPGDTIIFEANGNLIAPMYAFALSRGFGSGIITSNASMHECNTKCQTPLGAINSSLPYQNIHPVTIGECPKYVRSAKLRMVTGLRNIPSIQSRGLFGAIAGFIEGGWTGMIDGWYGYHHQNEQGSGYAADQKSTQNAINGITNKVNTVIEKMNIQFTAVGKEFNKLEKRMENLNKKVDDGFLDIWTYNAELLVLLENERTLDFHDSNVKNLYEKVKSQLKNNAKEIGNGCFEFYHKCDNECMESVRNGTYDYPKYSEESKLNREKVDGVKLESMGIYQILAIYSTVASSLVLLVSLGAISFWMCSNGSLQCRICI", "type": "binding, IAV H1N1 strain A/Puerto Rico/8/1934 (PR8)"}, "[14]": {"tested_on": "IAV strain PR8", "type": "cell-based, IAV H1N1 strain A/Puerto Rico/8/1934 (PR8)", "remark": "listed apart in the source"}, "[15]": {"tested_on": "IAV particles (strain PR8)", "type": "biochemical, IAV H1N1 strain A/Puerto Rico/8/1934 (PR8)"}, "[16]": {"tested_on": "HA1/HA2", "type": "binding, IAV H1N1 strain A/Puerto Rico/8/1934 (PR8)"}, "[17]": {"tested_on": "IAV strain PR8", "type": "cell-based, IAV H1N1 strain A/Puerto Rico/8/1934 (PR8)", "remark": "listed apart in the source"}, "[18]": {"tested_on": "IAV strain PR8", "type": "cell-based, IAV H1N1 strain A/Puerto Rico/8/1934 (PR8)", "remark": "listed apart in the source"}, "[19]": {"tested_on": "IAV strain PR8", "type": "cell-based, IAV H1N1 strain A/Puerto Rico/8/1934 (PR8)", "remark": "listed apart in the source"}, "[20]": {"tested_on": "IAV strain PR8", "type": "cell-based, IAV H1N1 strain A/Puerto Rico/8/1934 (PR8)", "remark": "listed apart in the source"}, "[21]": {"tested_on": "HA", "type": "biochemical, IAV H1N1 strain A/Puerto Rico/8/1934 (PR8)"}, "[22]": {"tested_on": "recombinant HA derived from H5N1 A/chicken/Yamaguchi/7/2004 strain", "type": "binding, Influenza A virus H5N1"}, "[23]": {"tested_on": "HA", "type": "cell-based, IAV H1N1 strain A/Puerto Rico/8/1934 (PR8)"}, "[24]": {"tested_on": "LC3-II", "type": "cell-based, canine"}, "[25]": {"tested_on": "cell surface HA", "type": "cell-based, IAV H1N1 strain A/Puerto Rico/8/1934 (PR8)"}, "[26]": {"tested_on": "MDCK cells"}, "[27]": {"tested_on": "IAV strain PR8", "remark": "listed apart in the source"}, "[28]": {"tested_on": "IAV strain PR8", "type": "cell-based, IAV H1N1 strain A/Puerto Rico/8/1934 (PR8)", "remark": "listed apart in the source"}}, "note": "Values joined by “and” are separate entries in the source; they are usually repeats but may differ in a detail not shown here. Equal values may be shown once. Read-outs that look alike come from different tables or passages of the source. Positions of bridges follow the written chain, without caps; N, C: chain ends. Non-standard residues stand in square brackets, D forms with d. Chains are numbered I, II in the order given. No end group written: not given here. Ahx = NCCCCCC(=O)O", "data": [{"compound": "CC(=O)N[C@H]1[C@H]([C@H](O)[C@H](O)CO)OC(C(=O)O)=C[C@@H]1N=C(N)N", "note": "[Zanamivir, zanamivir]", "values": [{"measurement": "body weight loss (in words)", "setting": "[1]", "result": "attenuated the weight loss"}, {"measurement": "mice rescued from mortality", "setting": "[1]", "result": 100, "unit": "%"}, {"measurement": "EC50", "setting": "[2]", "result": 0.2, "unit": "µM"}]}, {"compound": "C[C@@H]1COCCN1c1cc(=O)n2c(n1)N(Cc1cncc(Cl)c1)[C@H](C(F)(F)F)CC2", "note": "[SAR405]", "values": [{"measurement": "effect on the dose-dependent anti-viral activity of PVF-tet (in words)", "setting": "[3]", "result": "suppressed the dose-dependent anti-viral activity of PVF-tet"}]}, {"compound": "CO/C1=C\\C(C)=C\\[C@@H](C)[C@@H](O)[C@@H](C)C/C(C)=C/C=C/[C@H](OC)[C@@H]([C@@H](C)[C@@H](O)[C@H](C)[C@@]2(O)C[C@@H](O)[C@H](C)[C@@H](C(C)C)O2)OC1=O", "note": "[bafilomycin A1]", "values": [{"measurement": "NP-positive cells (%)", "setting": "[4]", "result": "5.3% and 2.2% and 2.8% and 3.8%"}, {"measurement": "virus entry into target cells, NP-positive cells (in words)", "setting": "[4]", "result": "completely inhibited virus entry into cells"}, {"measurement": "time of administration after initial IAV infection at which cytopathicity is still inhibited", "setting": "[5]", "result": "< 5", "unit": "h"}, {"measurement": "fusion process monitored by fluorescently labeled virus (in words)", "setting": "[6]", "result": "efficiently inhibited both events"}, {"measurement": "NP mRNA synthesis (in words)", "setting": "[7]", "result": "efficiently inhibited both events"}, {"measurement": "Relative mRNA expression (fold increase)", "setting": "[7]", "result": "0.134 fold increase and 0.131 fold increase and 0.156 fold increase and 0.244 fold increase and 0.237 fold increase and 0.138 fold increase and 0.155 fold increase"}]}, {"compound": "asialofetuin [reference compound]", "values": [{"measurement": "binding to non-infectious IAV particles with HA0 (in words)", "setting": "[8]", "result": "exhibited no binding"}, {"measurement": "binding to infectious IAV particles with HA1/HA2 (in words)", "setting": "[9]", "result": "exhibited no binding"}]}, {"compound": "3-MA", "values": [{"measurement": "cell viability of uninfected MDCK cells (in words)", "setting": "[10]", "result": "did not affect the cell viability"}]}, {"compound": "RRRVNHH [RVH-tet]", "values": [{"measurement": "inhibition of IAV cytopathicity (in words)", "setting": "[11]", "result": "efficiently inhibited the cytopathicity in a dose-dependent manner"}]}, {"compound": "I: MARRPVNHFA[Ahx]KK-NH2 / II: MARRPVNHFA[Ahx]K / III: MARRPVNHFA[Ahx] / IV: MARRPVNHFA[Ahx] (amide I:12-IV:C, I:13-II:C, II:12-III:C) [PVF-tet]", "values": [{"measurement": "inhibition of the interaction between HA and α2,6-sialyllactose polymer (in words)", "setting": "[12]", "result": "also efficiently inhibited the binding of HA to α2-6 sialyllactose-polymer"}, {"measurement": "Rmax", "setting": "[13]", "result": 1004, "unit": "RU"}, {"measurement": "binding to HA (in words)", "setting": "[13]", "result": "bound to HA with high affinity"}, {"measurement": "fold increase of virus titer over the initial virus titer", "setting": "[14]", "result": "about 50 fold"}, {"measurement": "inhibition of IAV propagation (in words)", "setting": "[14]", "result": "inhibited IAV propagation to a greater degree than fetuin"}, {"measurement": "NP-positive cells (%)", "setting": "[4]", "result": "51.6% and 50.5% and 44.6% and 50.0%"}, {"measurement": "virus entry into target cells, NP-positive cells (in words)", "setting": "[4]", "result": "did not inhibit virus entry into target cells"}, {"measurement": "time of administration after initial IAV infection at which cytopathicity is still inhibited", "setting": "[5]", "result": "up to 9 h"}, {"measurement": "fusion process monitored by fluorescently labeled virus (in words)", "setting": "[6]", "result": "did not affect the fusion process"}, {"measurement": "NP mRNA synthesis (in words)", "setting": "[7]", "result": "did not affect"}, {"measurement": "inhibition of IAV-induced hemagglutination (in words)", "setting": "[15]", "result": "did not inhibit IAV-induced hemagglutination"}, {"measurement": "effect of proteolytic cleavage of recombinant HA into HA1/HA2 on binding (in words)", "setting": "[16]", "result": "reduced the binding of PVF-tet to HA"}, {"measurement": "binding to non-infectious IAV particles with HA0 (in words)", "setting": "[8]", "result": "did bind with remarkable efficacy to non-infectious IAV particles with HA0"}, {"measurement": "binding to infectious IAV particles with HA1/HA2 (in words)", "setting": "[9]", "result": "did not bind to infectious IAV particles with HA1/HA2"}, {"measurement": "cell viability", "setting": "[17]", "result": "103 ± 9% and 85 ± 9%"}, {"measurement": "inhibition of cytopathicity when treated from 2 h post-infection for limited periods (in words)", "setting": "[17]", "result": "still efficiently inhibited the cytotoxicity"}, {"measurement": "Cell viabilitiy(%)", "setting": "[18]", "result": "136.2% and 97.5% and 109.1% and 71.8% and 88.5% and 71.7%"}, {"measurement": "anti-IAV activity in the ABCA3-knockout clone (in words)", "setting": "[18]", "result": "retained its anti-IAV activity"}, {"measurement": "anti-viral activity in ULK1-knockout clones (in words)", "setting": "[19]", "result": "significantly suppressed in the clones"}, {"measurement": "anti-viral activity in PIK3C3-knockout clones (in words)", "setting": "[20]", "result": "significantly suppressed in the clones"}, {"measurement": "formation of highly clustered HA (in words)", "setting": "[21]", "result": "induced the formation of highly clustered HA"}, {"measurement": "binding to recombinant H5N1 HA (in words)", "setting": "[22]", "result": "bound"}, {"measurement": "amount of newly synthesized HA in infected cells (in words)", "setting": "[23]", "result": "accumulated in a time-dependent manner"}, {"measurement": "formation of LC3-II (in words)", "setting": "[24]", "result": "further enhanced the formation of LC3-II"}, {"measurement": "amount of HA on the plasma membrane (in words)", "setting": "[25]", "result": "marked reduction of the amount of HA that was present on the plasma membrane"}, {"measurement": "EC50", "setting": "[11]; 24 h", "result": 1400, "unit": "nM"}, {"measurement": "effect of FBS on incorporation into cells (in words)", "setting": "[26]", "result": "enhanced by the presence of fetal bovine serum (FBS)"}, {"measurement": "incorporation into MDCK cells (in words)", "setting": "[26]", "result": "can be incorporated into MDCK cells at 37 °C"}, {"measurement": "inhibition of IAV cytopathicity in Caco-2 cells (in words)", "setting": "[27]", "result": "equally inhibited cytopathicity induced by both low and high MOI infection"}]}, {"compound": "CSCC[C@H](N)C(=O)N[C@@H](C)C(=O)N[C@@H](C)C(=O)NCCCCCC(=O)NCCCC[C@H](NC(=O)CCCCCNC(=O)[C@H](C)NC(=O)[C@H](C)NC(=O)[C@@H](N)CCSC)C(=O)NCCCC[C@H](NC(=O)[C@H](CCCCNC(=O)CCCCCNC(=O)[C@H](C)NC(=O)[C@H](C)NC(=O)[C@@H](N)CCSC)NC(=O)CCCCCNC(=O)[C@H](C)NC(=O)[C@H](C)NC(=O)[C@@H](N)CCSC)C(=O)O", "note": "[MA-tet]", "values": [{"measurement": "inhibition of IAV cytopathicity (in words)", "setting": "[11]", "result": "did not inhibit the cytopathicity"}]}, {"compound": "fetuin", "values": [{"measurement": "inhibition of IAV cytopathicity at low MOI (in words)", "setting": "[28]", "result": "had the greatest inhibitory effect"}, {"measurement": "Virus propagation (fold increase)", "setting": "[14]", "result": "350.0 fold increase and 466.7 fold increase and 483.3 fold increase"}, {"measurement": "inhibition of IAV-induced hemagglutination (in words)", "setting": "[15]", "result": "efficiently inhibited the activity"}, {"measurement": "effect of proteolytic cleavage of recombinant HA into HA1/HA2 on binding (in words)", "setting": "[16]", "result": "also reduced by the cleavage of HA"}, {"measurement": "binding to non-infectious IAV particles with HA0 (in words)", "setting": "[8]", "result": "exhibited much more binding"}, {"measurement": "inhibition of IAV cytopathicity (in words)", "setting": "[11]", "result": "showed no inhibitory effect at all"}]}, {"compound": "RRPVNHD [PVD-tet]", "values": [{"measurement": "inhibition of IAV cytopathicity (in words)", "setting": "[11]", "result": "failed to inhibit IAV cytopathicity"}, {"measurement": "incorporation into MDCK cells (in words)", "setting": "[26]", "result": "less cell-penetrating"}]}]}
